The text below walks through data of publication PMC4949581 (ACS Chemical Biology, 2016).

Format in all cases: biochemical
Assay [1] has as its target T1, TxGH116 β-glucosidase (Thermoanaerobacterium xylanolyticum, UniProt F6BL85).
T1 sequence (F6BL85 19-806): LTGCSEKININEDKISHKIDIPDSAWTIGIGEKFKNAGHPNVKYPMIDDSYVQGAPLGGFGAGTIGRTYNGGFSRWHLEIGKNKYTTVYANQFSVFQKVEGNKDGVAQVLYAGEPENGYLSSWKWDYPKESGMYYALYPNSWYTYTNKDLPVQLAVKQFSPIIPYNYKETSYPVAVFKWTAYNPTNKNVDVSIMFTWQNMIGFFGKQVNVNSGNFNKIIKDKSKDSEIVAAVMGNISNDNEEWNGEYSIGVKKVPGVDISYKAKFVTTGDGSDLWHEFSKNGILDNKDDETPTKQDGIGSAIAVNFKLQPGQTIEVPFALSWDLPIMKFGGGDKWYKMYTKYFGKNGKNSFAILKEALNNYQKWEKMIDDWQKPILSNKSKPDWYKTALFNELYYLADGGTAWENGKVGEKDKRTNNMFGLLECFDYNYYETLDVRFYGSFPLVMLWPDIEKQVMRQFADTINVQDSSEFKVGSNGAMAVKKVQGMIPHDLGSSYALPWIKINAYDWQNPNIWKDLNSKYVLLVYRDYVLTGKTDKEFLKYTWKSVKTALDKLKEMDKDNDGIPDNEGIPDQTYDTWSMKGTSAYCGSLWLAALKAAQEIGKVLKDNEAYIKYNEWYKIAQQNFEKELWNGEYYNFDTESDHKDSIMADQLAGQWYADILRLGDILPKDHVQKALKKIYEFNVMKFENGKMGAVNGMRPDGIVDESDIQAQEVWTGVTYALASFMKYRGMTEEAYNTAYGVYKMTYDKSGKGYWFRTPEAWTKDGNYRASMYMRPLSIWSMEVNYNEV
Put plainly: crystal structure.

The target in assay [2] is T1, TxGH116 β-glucosidase. Put plainly: crystal structure. The source holds these as a separate data set.
Assay [3] has as its target T1, TxGH116 β-glucosidase. Put plainly: inhibition of 4NPGlc hydrolysis, Lineweaver–Burk.
In assay [4] the target is T1, TxGH116 β-glucosidase. Briefly: inactivation of the purified enzyme.

`OC[C@H]1NC[C@H](O)[C@@H](O)[C@@H]1O` [DNJ, deoxynojirimycin]: the affinity on TxGH116 β-glucosidase [1], expressed as Ki, was 0.13 ± 0.01 µM.
Take `OC[C@H]1O[C@@H](O)[C@H](O)[C@@H](O)[C@@H]1O` [Glc, D-glucose]: the affinity on TxGH116 β-glucosidase [2] corresponds to a Ki of 4000 ± 300 µM.
In turn, `OC[C@H]1CNC[C@@H](O)[C@@H]1O` [IFG, isofagomine] came in with a Ki at TxGH116 β-glucosidase [3] of 0.0029 ± 0.0001 µM.
Regarding `OC[C@@H]1[C@@H](O)[C@H](O)[C@@H](O)[C@@H]2O[C@H]12` [cyclophellitol], the “inactivation of the purified enzyme” value on TxGH116 β-glucosidase [4] is “cyclophellitol, a related epoxide that contains a hydroxymethyl group corresponding to the hydroxymethyl group of glucose, rapidly inactivated TxGH116”.
